Here are results for 26 compounds from patent US9873709B2 (priority 2013, dated 2018).

Where a name gives a salt, the structure may show the parent alone.

In the assay the test system is JAK1-dependent STAT6 phosphorylation downstream of IL-13 stimulation in TF-1 human erythroleukemia cells. The assay is described as follows: cells. Conditions: TF-1, read-out: IL-13-pSTAT6 IC50.
As a reminder, the IC50 is the point on the concentration scale where inhibition reaches its midpoint. `CN(Cc1ccccc1-c1cccnc1)C(=O)c1ccc(Nc2nc3c(C4=CCN(C(=O)CCC(F)(F)F)CC4)cccn3n2)cc1` [Example 2-104, N-methyl-N-[[2-(3-pyridyl)phenyl]methyl]-4-[[8-[1-(4,4,4-trifluorobutanoyl)-3,6-dihydro-2H-pyridin-4-yl]-[1,2,4]triazolo[1,5-a]pyridin-2-yl]amino]benzamide]: the IC50 amounted to 59.7 nM.

For the compound `CN1CCC(N(C)C(=O)c2ccc(Nc3nc4c(C5=CCN(C(=O)C6CCOCC6)CC5)cccn4n3)cc2)CC1` [Example 2-105, N-methyl-N-(1-methyl-4-piperidyl)-4-[[8-[1-(tetrahydropyran-4-carbonyl)-3,6-dihydro-2H-pyridin-4-yl]-[1,2,4]triazolo[1,5-a]pyridin-2-yl]amino]benzamide], the IC50 is 373 nM. In the case of `CNC(=O)N1CC=C(c2cccn3nc(Nc4ccc(C(=O)N(C)C5CCN(C)CC5)cc4)nc23)CC1` [Example 2-106, N-methyl-4-[2-[4-[methyl-(1-methyl-4-piperidyl)carbamoyl]anilino]-[1,2,4]triazolo[1,5-a]pyridin-8-yl]-3,6-dihydro-2H-pyridine-1-carboxamide; hydrochloride] it was 8570 nM; in that of `CN1CCC(N(C)C(=O)c2ccc(Nc3nc4c(C5=CCN(C(=O)C6CCOC6)CC5)cccn4n3)cc2)CC1` (centres unmarked) [Example 2-107, N-methyl-N-(1-methyl-4-piperidyl)-4-[[8-[1-(tetrahydrofuran-3-carbonyl)-3,6-dihydro-2H-pyridin-4-yl]-[1,2,4]triazolo[1,5-a]pyridin-2-yl]amino]benzamide; hydrochloride], 422 nM. `CN1CCC(N(C)C(=O)c2ccc(Nc3nc4c(C5=CCN(C(=O)OCC(F)(F)F)CC5)cccn4n3)cc2)CC1` [Example 2-108, 2,2,2-trifluoroethyl 4-[2-[4-[methyl-(1-methyl-4-piperidyl)carbamoyl]anilino]-[1,2,4]triazolo[1,5-a]pyridin-8-yl]-3,6-dihydro-2H-pyridine-1-carboxylate]: the IC50 is 9.8 nM.

On to `CCOC(=O)N1CC=C(c2cccn3nc(Nc4ccc(C(=O)NCCC5CCCN5C)cc4)nc23)CC1` (centres unmarked) [Example 2-111, ethyl 4-[2-[4-[2-(1-methylpyrrolidin-2-yl)ethylcarbamoyl]anilino]-[1,2,4]triazolo[1,5-a]pyridin-8-yl]-3,6-dihydro-2H-pyridine-1-carboxylate], for which the IC50 worked out at 22.6 nM.

For the compound `CCOC(=O)N1CC=C(c2cccn3nc(Nc4ccc(C(=O)NCCN5CCNCC5)cc4)nc23)CC1` [Example 2-112, ethyl 4-[2-[4-(2-piperazin-1-ylethylcarbamoyl)anilino]-[1,2,4]triazolo[1,5-a]pyridin-8-yl]-3,6-dihydro-2H-pyridine-1-carboxylate], the IC50 was 233 nM. With `CCOC(=O)N1CC=C(c2cccn3nc(Nc4ccc(C(=O)NC5CCCNC5)cc4)nc23)CC1` (centres unmarked) [Example 2-113, ethyl 4-[2-[4-(3-piperidylcarbamoyl)anilino]-[1,2,4]triazolo[1,5-a]pyridin-8-yl]-3,6-dihydro-2H-pyridine-1-carboxylate] the figure was 96.8 nM; with `CCOC(=O)N1CC=C(c2cccn3nc(Nc4ccc(C(=O)NCC5CCCCN5)cc4)nc23)CC1` (centres unmarked) [Example 2-114, ethyl 4-[2-[4-(2-piperidylmethylcarbamoyl)anilino]-[1,2,4]triazolo[1,5-a]pyridin-8-yl]-3,6-dihydro-2H-pyridine-1-carboxylate], 69.2 nM. Take `CCOC(=O)N1CC=C(c2cccn3nc(Nc4ccc(C(=O)N5CC(C(=O)N(C)C)C5)cc4)nc23)CC1` [Example 2-115, ethyl 4-[2-[4-[3-(dimethylcarbamoyl)azetidine-1-carbonyl]anilino]-[1,2,4]triazolo[1,5-a]pyridin-8-yl]-3,6-dihydro-2H-pyridine-1-carboxylate]: the IC50 amounted to 19 nM.

On to `CCOC(=O)N1CC=C(c2cccn3nc(Nc4ccc(C(=O)N(C)CCc5ccncc5)cc4)nc23)CC1` [Example 2-119, ethyl 4-[2-[4-[methyl-[2-(4-pyridyl)ethyl]carbamoyl]anilino]-[1,2,4]triazolo[1,5-a]pyridin-8-yl]-3,6-dihydro-2H-pyridine-1-carboxylate], for which the IC50 amounted to 23.9 nM. With `CCOC(=O)N1CC=C(c2cccn3nc(Nc4ccc(C(=O)N5CC6CN(C)CC(C5)O6)cc4)nc23)CC1` [Example 2-123, ethyl 4-[2-[4-(7-methyl-9-oxa-3,7-diazabicyclo[3.3.1]nonane-3-carbonyl)anilino]-[1,2,4]triazolo[1,5-a]pyridin-8-yl]-3,6-dihydro-2H-pyridine-1-carboxylate] the figure was 48.8 nM. With `CCOC(=O)N1CC=C(c2cccn3nc(Nc4ccc(C(=O)NCc5cc(C)ccn5)cc4)nc23)CC1` [Example 2-124, ethyl 4-[2-[4-[(4-methyl-2-pyridyl)methylcarbamoyl]anilino]-[1,2,4]triazolo[1,5-a]pyridin-8-yl]-3,6-dihydro-2H-pyridine-1-carboxylate] the figure was 38.5 nM; with `CCOC(=O)N1CC=C(c2cccn3nc(Nc4ccc(C(=O)N5CCC(CN)C5)cc4)nc23)CC1` (centres unmarked) [Example 2-130, ethyl 4-[2-[4-[3-(aminomethyl)pyrrolidine-1-carbonyl]anilino]-[1,2,4]triazolo[1,5-a]pyridin-8-yl]-3,6-dihydro-2H-pyridine-1-carboxylate], 226 nM. With `O=C(CCC(F)(F)F)N1CC=C(c2cccn3nc(Nc4ccc(C(=O)N5CCC6(CCNC6)CC5)cc4)nc23)CC1` [Example 2-136, 1-[4-[2-[4-(2,8-diazaspiro[4.5]decane-8-carbonyl)anilino]-[1,2,4]triazolo[1,5-a]pyridin-8-yl]-3,6-dihydro-2H-pyridin-1-yl]-4,4,4-trifluoro-butan-1-one] the figure was 163 nM; with `O=C(NC1CCCNC1)c1ccc(Nc2nc3c(C4=CCN(C(=O)CCC(F)(F)F)CC4)cccn3n2)cc1` (centres unmarked) [Example 2-137, N-(3-piperidyl)-4-[[8-[1-(4,4,4-trifluorobutanoyl)-3,6-dihydro-2H-pyridin-4-yl]-[1,2,4]triazolo[1,5-a]pyridin-2-yl]amino]benzamide], 78.8 nM; with `O=C(N[C@H]1CCCNC1)c1ccc(Nc2nc3c(C4=CCN(C(=O)CCC(F)(F)F)CC4)cccn3n2)cc1` [Example 2-138, N-[(3S)-3-piperidyl]-4-[[8-[1-(4,4,4-trifluorobutanoyl)-3,6-dihydro-2H-pyridin-4-yl]-[1,2,4]triazolo[1,5-a]pyridin-2-yl]amino]benzamide], 61.9 nM. On to `O=C(CCC(F)(F)F)N1CC=C(c2cccn3nc(Nc4ccc(C(=O)N5CCO[C@@H]6CNC[C@@H]65)cc4)nc23)CC1` [Example 2-139, 1-[4-[2-[4-[(4aS,7aR)-3,4a,5,6,7,7a-hexahydro-2H-pyrrolo[3,4-b][1,4]oxazine-4-carbonyl]anilino]-[1,2,4]triazolo[1,5-a]pyridin-8-yl]-3,6-dihydro-2H-pyridin-1-yl]-4,4,4-trifluoro-butane-1-one], for which the IC50 came to 358 nM.

`N#CCCN1CCN(C(=O)c2ccc(Nc3nc4c(C5=CCN(C(=O)CCC(F)(F)F)CC5)cccn4n3)cc2)CC1` [Example 2-142, 3-[4-[4-[[8-[1-(4,4,4-trifluorobutanoyl)-3,6-dihydro-2H-pyridin-4-yl]-[1,2,4]triazolo[1,5-a]pyridin-2-yl]amino]benzoyl]piperazin-1-yl]propanenitrile]: the IC50 is 6.6 nM.

`Cc1ccc(C2CCCN2C(=O)c2ccc(Nc3nc4c(C5=CCN(C(=O)CCC(F)(F)F)CC5)cccn4n3)cc2)nc1` (centres unmarked) [Example 2-143, 4,4,4-trifluoro-1-[4-[2-[4-[2-(5-methyl-2-pyridyl)pyrrolidine-1-carbonyl]anilino]-[1,2,4]triazolo[1,5-a]pyridin-8-yl]-3,6-dihydro-2H-pyridin-1-yl]butan-1-one]: the IC50 was determined as 7.9 nM. In the case of `CN1CCN(C(=O)c2ccc(Nc3nc4c(C5=CCN(C(=O)CCC(F)(F)F)CC5)cccn4n3)cc2)CC(CO)C1` (centres unmarked) [Example 2-144, 4,4,4-trifIuoro-1-[4-[2-[4-[6-(hydroxymethyl)-4-methyl-1,4-diazepane-1-carbonyl]anilino]-[1,2,4]triazolo[1,5-a]pyridin-8-yl]-3,6-dihydro-2H-pyridin-1-yl]butan-1-one] it was 187 nM.

In the case of `O=C(CCC(F)(F)F)N1CC=C(c2cccn3nc(Nc4ccc(C(=O)N5CCCC5c5cccnc5)cc4)nc23)CC1` (centres unmarked) [Example 2-145, 4,4,4-trifluoro-1-[4-[2-[4-[2-(3-pyridyl)pyrrolidine-1-carbonyl]anilino]-[1,2,4]triazolo[1,5-a]pyridin-8-yl]-3,6-dihydro-2H-pyridin-1-yl]butan-1-one], the IC50 is 6.4 nM. In the case of `O=C(CCC(F)(F)F)N1CC=C(c2cccn3nc(Nc4ccc(C(=O)N5Cc6cccnc6C5)cc4)nc23)CC1` [Example 2-146, 1-[4-[2-[4-(5,7-dihydropyrrolo[3,4-b]pyridine-6-carbonyl)anilino]-[1,2,4]triazolo[1,5-a]pyridin-8-yl]-3,6-dihydro-2H-pyridin-1-yl]-4,4,4-trifluoro-butan-1-one] it was 6.5 nM; in that of `CC1CCN(CCNC(=O)c2ccc(Nc3nc4c(C5=CCN(C(=O)CCC(F)(F)F)CC5)cccn4n3)cc2)CC1` [Example 2-147, N-[2-(4-methyl-1-piperidyl)ethyl]-4-[[8-[1-(4,4,4-trifluorobutanoyl)-3,6-dihydro-2H-pyridin-4-yl]-[1,2,4]triazolo[1,5-a]pyridin-2-yl]amino]benzamide], 6.6 nM; in that of `CN1CCC(C2CCCCN2C(=O)c2ccc(Nc3nc4c(C5=CCN(C(=O)CCC(F)(F)F)CC5)cccn4n3)cc2)CC1` (centres unmarked) [Example 2-149, 4,4,4-trifluoro-1-[4-[2-[4-[2-(1-methyl-4-piperidyl)piperidine-1-carbonyl]anilino]-[1,2,4]triazolo[1,5-a]pyridin-8-yl]-3,6-dihydro-2H-pyridin-1-yl]butane-1-one], 10.7 nM.

As for `CN1CCC(N(C(=O)c2ccc(Nc3nc4c(C5=CCN(C(=O)CCC(F)(F)F)CC5)cccn4n3)cc2)C2CC2)CC1` [Example 2-150, N-cyclopropyl-N-(1-methyl-4-piperidyl)-4-[[8-[1-(4,4,4-trifluorobutanoyl)-3,6-dihydro-2H-pyridin-4-yl]-[1,2,4]triazolo[1,5-a]pyridin-2-yl]amino]benzamide], the IC50 is 8.3 nM.
